For series [1] the following is noted: guinea pig, 1 h, pH 7.4.
For series [2], the system named is TCRV-p. Description: organism not typed. It counts as cell-based. The note with it: Vero, 24 h, read-out: TCRV-p EC50 (nM).
Series [3] has as its system LCMV. Description: microbe, parasite or virus in culture. It counts as cell-based, lymphocytic choriomeningitis virus (LCMV).
For series [4], the system named is LASV. The series can be described thus: organism not typed. Type of series: cell-based, Lassa (LASV).
Series [5] deals with native replicating Tacaribe (TCRV) virus. The series can be described thus: microbe, parasite or virus in culture. It counts as cell-based.
For series [6] the following is noted: 1 h, pH 7.4.
Series [7] has as its system GTOV-p. Description: organism not typed. Type of series: cell-based, Guanarito (GTOV). The settings on record: Vero, 24 h, read-out: GTOV-p EC50 (nM).
Series [8] relates to JUNV-p. The series can be described thus: organism not typed. It counts as cell-based, Junin (JUNV). The settings on record: Vero, 24 h, read-out: JUNV-p EC50 (nM).
The nature of series [9]: in vitro. The settings on record: African green monkey.
The conditions of series [10]: 1 h, pH 7.4. The source holds these as a separate data set.
The subject of series [11] is JUNV. The series can be described thus: organism not typed. Type of series: cell-based, Junin (JUNV).
The test system of series [12] is MACV-p. The series can be described thus: organism not typed. Type of series: cell-based, Machupo (MACV). The settings on record: Vero, 24 h, read-out: MACV-p EC50 (nM).
Series [13] deals with LASV-p. The series can be described thus: organism not typed. It counts as cell-based, Lassa (LASV). The note with it: Vero, 24 h, read-out: LASV-p EC50 (nM).
Series [14] has as its system VSV-p. The series can be described thus: microbe, parasite or virus in culture. Type of series: cell-based. The note with it: Vesicular stomatitis virus, Vero, 24 h, read-out: VSV-p EC50 (nM).
Series [15] deals with hERG channel (Homo sapiens, UniProt Q12809). The note with it: pH 7.4.
The conditions of series [16]: 1 h, pH 7.4. This is another data set of the same source.
A short description of series [17]: in vivo. The settings on record: guinea pig, po, 10 mg/kg.
The conditions of series [18]: guinea pig, in vivo, 10 mg/kg.

Some results are limits rather than exact numbers.

hERG channel, sequence (Q12809 whole entry): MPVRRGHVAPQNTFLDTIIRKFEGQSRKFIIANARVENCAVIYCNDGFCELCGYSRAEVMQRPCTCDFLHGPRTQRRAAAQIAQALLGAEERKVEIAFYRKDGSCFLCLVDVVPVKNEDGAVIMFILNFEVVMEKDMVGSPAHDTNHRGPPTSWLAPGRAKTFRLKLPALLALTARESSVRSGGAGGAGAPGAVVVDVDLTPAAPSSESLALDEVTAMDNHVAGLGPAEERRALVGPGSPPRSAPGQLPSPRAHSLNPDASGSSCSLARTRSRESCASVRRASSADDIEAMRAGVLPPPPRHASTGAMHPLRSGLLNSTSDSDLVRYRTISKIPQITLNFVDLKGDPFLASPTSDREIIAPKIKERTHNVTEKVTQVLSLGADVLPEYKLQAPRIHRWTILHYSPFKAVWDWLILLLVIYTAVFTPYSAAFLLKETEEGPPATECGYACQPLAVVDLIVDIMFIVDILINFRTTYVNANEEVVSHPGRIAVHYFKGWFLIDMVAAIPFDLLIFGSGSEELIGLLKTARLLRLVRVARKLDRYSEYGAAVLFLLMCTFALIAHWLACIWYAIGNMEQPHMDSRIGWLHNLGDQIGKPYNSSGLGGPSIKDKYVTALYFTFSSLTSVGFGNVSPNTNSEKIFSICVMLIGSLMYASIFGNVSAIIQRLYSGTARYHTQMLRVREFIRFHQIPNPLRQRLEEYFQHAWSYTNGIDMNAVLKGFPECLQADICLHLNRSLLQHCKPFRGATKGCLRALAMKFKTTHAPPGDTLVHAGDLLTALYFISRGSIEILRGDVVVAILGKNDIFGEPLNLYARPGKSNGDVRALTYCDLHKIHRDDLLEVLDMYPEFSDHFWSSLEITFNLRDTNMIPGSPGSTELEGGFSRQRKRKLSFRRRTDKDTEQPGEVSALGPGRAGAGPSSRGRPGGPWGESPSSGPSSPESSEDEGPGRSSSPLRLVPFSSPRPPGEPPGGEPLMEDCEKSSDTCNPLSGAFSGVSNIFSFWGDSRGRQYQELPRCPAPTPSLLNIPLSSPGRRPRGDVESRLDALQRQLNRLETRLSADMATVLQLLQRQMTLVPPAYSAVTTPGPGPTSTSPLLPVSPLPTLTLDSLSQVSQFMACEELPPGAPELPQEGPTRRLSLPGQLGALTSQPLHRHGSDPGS

Usually EC50 stands for the concentration that produces a half-maximal response. What is called EC90 is the concentration at which the effect reaches the 90% level. Take `CC(C)Oc1ccc(-n2cnc3ccc(-c4ccc5[nH]ccc5c4)cc32)cc1` [Example A24, 6-(1H-indol-5-yl)-1-[4-(propan-2-yloxy)phenyl]-1H-1,3-benzodiazole]: the “Percent parent compound remaining at 60 minutes in liver microsomes, Guinea” value in series [1] came to 0%. Also, the EC50 is 15.9 nM in series [2]; 0.06 µM in series [4] (120 h, read-out: LASV EC50 uM); 0.01 µM in [5] (Mammarenavirus tacaribeense, Vero, 120 h, read-out: TCRV EC50 uM); 0.3 nM in [7]; 1.7 nM in series [8]; 0.56 µM in series [11] (120 h, read-out: JUNV EC50 uM). For the same compound, the half-maximal effective concentration (EC50) is 3.7 nM in [12] and 0.91 nM in series [13]. Also, in series [3], the “LCMV SI90” value amounted to 18. In addition, the EC90 in [3] (Mammarenavirus choriomeningitidis, read-out: LCMV EC90 uM) was 0.56 µM. Besides, the “LASV SI” value in [4] was 527. Further, the “TCRV SI50” value in [5] stood at 7100. Also, the “Percent parent compound remaining at 60 minutes in liver microsomes, Rat” value in series [6] was 32%. In addition, the CC50 in series [9] came out at 71300 nM. Also, in series [10], the “Percent parent compound remaining at 60 minutes in liver microsomes, Human” value came to 63%. In series [11], the “JUNV SI” value stood at 53.

In the case of `Cc1cc2ncn(-c3ccc(OC(C)C)cc3)c2cc1-c1ccc(OC(C)C)cc1` [Example A30, 5-methyl-1,6-bis[4-(propan-2-yloxy)phenyl]-1H-1,3-benzodiazole], the EC50 in series [14] was determined as 5310 nM; in series [2], 0.07 nM; in series [7] it was 0.21 nM; in series [8], 0.03 nM; in series [12], 0.21 nM; in series [13] it was 0.53 nM. The same compound showed a CC50 in series [9] of 3670 nM. The “hERG % Inhibition” value in series [15] is recorded as below 10%.

In the case of `COc1cc2ncn(-c3ccc(OC(C)C)cc3)c2cc1-c1ccc(OC(C)C)cc1` [Example A31, 5-methoxy-1,6-bis[4-(propan-2-yloxy)phenyl]-1H-1,3-benzodiazole], in series [1], the “Percent parent compound remaining at 60 minutes in liver microsomes, Guinea” value is on record as 100%. The EC50 is 0.7 nM in series [2], 0.18 nM in series [8], 0.9 nM in series [12] and 2.6 nM in series [13]. Also, in series [9], the CC50 was found to be 3790 nM. Also, the “hERG % Inhibition” value in [15] is below 10%. The “Percent parent compound remaining at 60 minutes in liver microsomes, Human” value in series [10] was determined as 93%. Also, the “Percent parent compound remaining at 60 minutes in liver microsomes, Monkey” value in [16] worked out at 40%.

Take `CC(C)Oc1ccc(-c2ccc3ncn(-c4ccc(OC(C)C)cc4)c3n2)cc1` [Example B2, 3,5-bis[4-(propan-2-yloxy)phenyl]-3H-imidazo[4,5-b]pyridine]: the “hERG % Inhibition” value in series [15] is given as below 10%.

On to `CC(C)Oc1ccc(-c2ccc3nnn(-c4ccc(OC(C)C)cc4)c3c2)cc1` [Example B12, 1,6-bis[4-(propan-2-yloxy)phenyl]-1H-1,2,3-benzotriazole], for which the “hERG % Inhibition” value in series [15] stood at 17%.

Consider `Cc1cc2nnn(-c3ccc(OC(C)C)cc3)c2cc1-c1ccc(OC(C)C)cc1` [Example B15, 5-methyl-1,6-bis[4-(propan-2-yloxy)phenyl]-1H-1,2,3-benzotriazole], for which the 50% effective concentration (EC50) in series [14] is above 10000 nM; in series [2] it was 0.37 nM; in [7] it was 0.18 nM; in series [8] it was 0.02 nM; in series [12], 0.25 nM; in [13] it was 0.95 nM. This compound also gave a CC50 in [9] above 100000 nM. Further, the “hERG % Inhibition” value in series [15] is on record as below 10%.

Usually Cmax stands for the peak of the concentration-time curve. A word on the Tmax: it is the time at which the peak concentration occurs. With `CC(C)Oc1ccc(-c2ccc3ncc(-c4ccc(OC(C)C)cc4)n3c2)cc1` [Example C2, 3,6-bis[4-(propan-2-yloxy)phenyl]imidazo[1,2-a]pyridine], in [17], the peak concentration (Cmax) worked out at 156 ng/mL and the Tmax was found to be 1 h. In addition, in series [18], the oral exposure entry was “demonstrated oral exposure”. In addition, the “hERG % Inhibition” value in series [15] was determined as 89%.

As to `OC1(c2ccc(-c3ccc4ncc(-c5ccc(C6(O)CCC6)cc5)n4c3)cc2)CCC1` [Example C47, 1-(4-{3-[4-(1-hydroxycyclobutyl)phenyl]imidazo[1,2-a]pyridin-6-yl}phenyl)cyclobutan-1-ol], the EC50 turned out to be 4340 nM in [14]; 1.17 nM in series [2]; 0.44 nM in series [7]; 0.55 nM in series [8]; 0.5 nM in series [12]; 1.8 nM in series [13]. The compound further gave a CC50 in series [9] of 7860 nM.

(Values after US20220281825A1 (priority 2016, published 2022).)
